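Exposure lasted 48 hours, with cells grown in 96-well plates and compounds tested at five concentrations. Abbreviation: GI50, concentration required for 50% inhibition of growth.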 Activity calls are given as the source filed them. Rule as the data show it: active = GI50 up to about 1.1 µM and inactive = higher.
What was measured:
Assay in all cases: DTP human tumour cell line panel, 48 h
[1] = system: NCI-H460
[2] = system: A498
[3] = system: KM12
[4] = system: CAKI-1
[5] = system: SK-OV-3
[6] = system: NCI/ADR-RES
[7] = system: SF-268
[8] = system: UO-31
[9] = system: MDA-MB-435
[10] = system: HCC 2998
[11] = system: HOP-62
[12] = system: HOP-92
[13] = system: MDA-N
[14] = system: PC-3
[15] = system: MDA-MB-231
[16] = system: HL-60
[17] = system: U-251
[18] = system: NCI-H23
[19] = system: SK-MEL-5
[20] = system: Hs-578T
[21] = system: T47D
[22] = system: HT-29
[23] = system: SR
[24] = system: OVCAR-4
[25] = system: 786-0
[26] = system: OVCAR-5
[27] = system: CCRF-CEM
[28] = system: RPMI-8226
[29] = system: K562
[30] = system: MOLT-4
[31] = system: DU-145
[32] = system: SF-539
[33] = system: SK-MEL-2
[34] = system: ACHN
[35] = system: SW-620
[36] = system: SF-295
[37] = system: M14
[38] = system: SN12C
[39] = system: SK-MEL-28
[40] = system: HCT-15
[41] = system: UACC-62
[42] = system: COLO 205
[43] = system: Malme-3M
[44] = system: A549
[45] = system: SNB-19
[46] = system: NCI-H226
[47] = system: LOX IMVI
[48] = system: RXF 393
[49] = system: EKVX
[50] = system: UACC-257
[51] = system: HCT-116
[52] = system: TK-10
[53] = system: OVCAR-3
[54] = system: MCF7
[55] = system: IGROV-1
[56] = system: NCI-H522
[57] = system: SNB-75
[58] = system: OVCAR-8

With `CC1S/C(=N\N=C2/C(=O)Nc3ccc(Br)cc32)N(C2CCCCC2)C1=O` (centres undefined) the GI50 [1] was 3.96 µM (inactive), the GI50 [2] was 3.04 µM (inactive) and the GI50 [3] was 4.65 µM (inactive). The GI50 [4] was 1.8 µM (inactive), the GI50 [5] was 2.84 µM (inactive) and the GI50 [6] was 3.4 µM (inactive). For the same compound, the GI50 [7] was 6.38 µM (inactive), the GI50 [8] was 1.06 µM (active) and the GI50 [9] was 5.37 µM (inactive). The GI50 [10] was 4.08 µM (inactive), the GI50 [11] was 2.09 µM (inactive) and the GI50 [12] was 7.46 µM (inactive). For the same compound, the GI50 [13] was 12.1 µM (inactive), the GI50 [14] was 5.36 µM (inactive) and the GI50 [15] was 2.18 µM (inactive). The GI50 [16] was 5.85 µM (inactive), the GI50 [17] was 2.54 µM (inactive) and the GI50 [18] was 4.42 µM (inactive). For the same compound, the GI50 [19] was 40.6 µM (inactive), the GI50 [20] was 3.22 µM (inactive) and the GI50 [21] was 3.96 µM (inactive). For the same compound, the GI50 [22] was 8.69 µM (inactive), the GI50 [23] was 5.06 µM (inactive) and the GI50 [24] was 1.89 µM (inactive). The GI50 [25] was 2.59 µM (inactive), the GI50 [26] was 14.4 µM (inactive) and the GI50 [27] was 39.8 µM (inactive). The GI50 [28] was 16.8 µM (inactive), the GI50 [29] was > 100 µM (inactive) and the GI50 [30] was 5.37 µM (inactive). For the same compound, the GI50 [31] was 3.73 µM (inactive), the GI50 [32] was 3.66 µM (inactive) and the GI50 [33] was 1.45 µM (inactive). For the same compound, the GI50 [34] was 1.16 µM (inactive), the GI50 [35] was 11.7 µM (inactive) and the GI50 [36] was 3.89 µM (inactive). For the same compound, the GI50 [37] was 4.29 µM (inactive), the GI50 [38] was 2.93 µM (inactive) and the GI50 [39] was 6.08 µM (inactive). The GI50 [40] was 3.87 µM, the GI50 [41] was 2.01 µM (inactive) and the GI50 [42] was 3.85 µM (inactive). The GI50 [43] was 9.23 µM (inactive), the GI50 [44] was 3.41 µM (inactive) and the GI50 [45] was 4.06 µM (inactive). The GI50 [46] was 4.03 µM (inactive), the GI50 [47] was 3.62 µM (inactive) and the GI50 [48] was 3.21 µM (inactive). The GI50 [49] was 4.16 µM (inactive), the GI50 [50] was 21 µM (inactive) and the GI50 [51] was 2.24 µM (inactive). For the same compound, the GI50 [52] was 1.15 µM (inactive), the GI50 [53] was 2.75 µM (inactive) and the GI50 [54] was 12.5 µM (inactive).

`CCN(CC)CCN(C(=O)c1ccc(F)cc1)c1ccccc1N` was tested, and the GI50 [1] was > 10 µM (inactive), the GI50 [2] was > 10 µM (inactive) and the GI50 [3] was > 10 µM (inactive). For the same compound, the GI50 [4] was > 10 µM (inactive), the GI50 [55] was > 10 µM (inactive) and the GI50 [5] was > 10 µM (inactive). The GI50 [6] was > 10 µM (inactive), the GI50 [7] was > 10 µM (inactive) and the GI50 [8] was > 10 µM (inactive). The GI50 [9] was > 10 µM (inactive), the GI50 [10] was > 10 µM (inactive) and the GI50 [11] was > 10 µM (inactive). For the same compound, the GI50 [13] was > 10 µM (inactive), the GI50 [14] was > 10 µM (inactive) and the GI50 [15] was > 10 µM (inactive). The GI50 [16] was > 10 µM (inactive), the GI50 [17] was > 10 µM (inactive) and the GI50 [18] was > 10 µM (inactive). For the same compound, the GI50 [19] was > 10 µM (inactive), the GI50 [20] was > 10 µM (inactive) and the GI50 [21] was > 10 µM (inactive). For the same compound, the GI50 [22] was > 10 µM (inactive), the GI50 [23] was > 10 µM (inactive) and the GI50 [24] was > 10 µM (inactive). For the same compound, the GI50 [26] was > 10 µM (inactive), the GI50 [27] was > 10 µM (inactive) and the GI50 [28] was > 10 µM (inactive). For the same compound, the GI50 [29] was > 10 µM (inactive), the GI50 [30] was > 10 µM (inactive) and the GI50 [31] was > 10 µM (inactive). The GI50 [56] was > 10 µM (inactive), the GI50 [32] was > 10 µM (inactive) and the GI50 [33] was > 10 µM (inactive). For the same compound, the GI50 [34] was > 10 µM (inactive), the GI50 [35] was > 10 µM (inactive) and the GI50 [36] was > 10 µM (inactive). The GI50 [37] was > 10 µM (inactive), the GI50 [38] was > 10 µM (inactive) and the GI50 [39] was > 10 µM (inactive). For the same compound, the GI50 [40] was > 10 µM, the GI50 [41] was > 10 µM (inactive) and the GI50 [42] was > 10 µM (inactive). The GI50 [43] was > 10 µM (inactive), the GI50 [44] was > 10 µM (inactive) and the GI50 [45] was > 10 µM (inactive). For the same compound, the GI50 [57] was > 10 µM (inactive), the GI50 [46] was 3.72 µM (inactive) and the GI50 [47] was > 10 µM (inactive). The GI50 [58] was > 10 µM (inactive), the GI50 [48] was > 10 µM (inactive) and the GI50 [49] was > 10 µM (inactive). The GI50 [51] was > 10 µM (inactive), the GI50 [52] was > 10 µM (inactive) and the GI50 [53] was > 10 µM (inactive). The GI50 [54] was > 10 µM (inactive).

Source: ChEMBL document CHEMBL1201862, “PubChem BioAssay data set” (2004)
